From patent publication US4221794A, “Method of imparting immunomodulating and antiviral activity” (Newport Pharmaceuticals International, Inc., priority 1979, dated 1980)
Values joined by “and” are separate entries in the source; they are usually repeats but may differ in a detail not shown here. Equal entries are not always repeated.

Columns and labels:
influenza virus [1] = test: microbe, parasite or virus in culture; type: cell-based, influenza virus Type A/USSR 90 (HeLa cell cultures); settings: for inhibition at 10 µg/mL / inhibition at 100 µg/mL: unidentified influenza virus; for inhibition at 10 µg/mL: read-out: % Inhibition of Hemadsorption Foci, Test Compound Conc. <10 μg/ml; for inhibition at 100 µg/mL: read-out: % Inhibition of Hemadsorption Foci, Test Compound Conc. >100 μg/ml; for % Inhibition of Hemadsorption Foci: Test Compound Conc. >100 μg/ml
[2] = test system: Influenza A Swine 1976 (Hlsw -N1); type: cell-based; settings: listed as 15417
mouse lymphocytes = test: Mitogen (Con A) induced mouse lymphocyte (spleen cell) proliferation; type: cell-based; settings: for Maximum Percent Change, Mitogen Induced (Con A) Mouse Lymph. Prolif.: plus = immunostimulating, minus = immunoinhibiting, 0 = neither
From the text: The following three assay procedures are used to evaluate the ability of the test substances to modulate the activity of several classes of cells in the immune system. In these systems it is possible to identify both immunopotentiating activity (evidence by an enhancement of the parameter examined) as well as immunosuppressant activity (evidenced by an inhibition of the parameter examined).
1. Mitogen-Induced Mouse Spleen Cell Assay
Mouse spleen cells contain a population of both B and T lymphocytes which can be stimulated by a number of foreign substances (e.g., plant mitogens such as Con A) to proliferate. This enhanced proliferation is an indication of enhanced cell mediated immunity. The method below describes the system used to evaluate test substances as immunopotentiators.
Concanavalin A (Calbiochem, La Jolla, California), Lot #210073, lyophilized in NaCl, was prepared first as a 1% solution and diluted as a 2×concentration for each dilution (0.5, 1.0, 2.5 μg/ml).
Six to eight week old male Balb/c and C3 H inbred mice were obtained from the following sources: Flow Research Animals, Inc., Dublin, Virginia; Charles River Breeding Laboratories, Wilmington, Massachusetts; Laboratory Supply Company, Indianapolis, Indiana; and Lionel Strong Foundation, San Diego, California.
Three to five mice were sacrificed by cervical dislocation and the spleens aseptically removed. Pooled spleens were minced and teased with sterile forceps; then strained through a double layer of nylon mesh. The cell suspension was washed once with 15 ml of RPMI 1640 supplemented with 5% fetal calf serum and antibiotics. Cells were cultured at a concentration of 10^6 cells/0.1 ml/well in micro-plates. Cultures were incubated in the presence or absence of mitogen in a humidified atmosphere containing 5% CO2 for 48 hours. The test compound was added to cultures at various concentrations concommitant with mitogen.
Proliferation was assayed by the degree of incorporation of 1.0 μCi of [^3 H] thymidine over an 18 hour incubation period. Cultures were harvested by a MASH unit (Otto Hiller Co., Madison, Wisconsin) and thymidine incorporation was assayed by liquid scintillation spectrometry. Cultures were performed in triplicate and data are expressed as means plus or minus the standard error of the experimental means. Drug stimulation indices over control values were also calculated and portrayed graphically.
(§1) Table 4 above presents the results of an evaluation of a number of these subject compounds as potentiators of the immune response. Three different test systems were used. The first involves a measure of the ability of the test compound to enhance the ability of mouse lymphocytes to proliferate in response to a plant mitogen (Con A). The second involves measuring the ability of the test compounds to enhance human lymphocyte proliferation in response to a second plant mitogen (PHA). The third system measures the ability of these test substances to enhance macrophage proliferation in response to a natural lymphokine (MMF, Macrophage Mitogenic Factor).

[3] = test system: human peripheral blood lymphocytes; test: Mitogen (PHA) induced human lymphocyte proliferation; type: cell-based; settings: plus = immunostimulating, minus = immunoinhibiting, 0 = neither
guinea pig macrophages = test: Lymphokine (MMF) induced guinea pig macrophage proliferation; type: cell-based; settings: plus = immunostimulating, minus = immunoinhibiting, 0 = neither
Description: 3. The macrophage represents a subpopulation of white blood cells which is an important component of the immune system in control of both cellular and humoral immunity. The assay system described below evaluates the substances studied as potentiators of macrophage function.
Phytohemagglutinin (PHA) (HA-17) was purchased from Burroughs Wellcome. A preparation containing Macrophage Mitogen Factor (MMF) and Macrophage Activating Factor (MAF) was prepared from antigen-stimulated immune lymph node lymphocytes (guinea pig) as previously described by Hadden et al, Nature 257, 483-485 (1975). […] The active fraction was employed in both the proliferation and activation assays.
Ficoll-hypaque purified human peripheral blood lymphocytes were prepared and PHA-induced lymphocyte proliferation was assayed by the incorporation of tritiated thymidine as described in Hadden et al., Cell. Immunol. 20, 98-103 (1975). Each compound was analyzed in the presence of suboptimal, optimal and supraoptimal concentrations of PHA (0.001, 0.01, 0.1 units/ml respectively). Paraffin oil-induced guinea pig peritoneal macrophages were prepared and incubated as monolayer culture (>98% pure macrophages). Lymphokine (MMF)-induced proliferation was assayed by the incorporation of tritiated thymidine at 3 and 5 days of culture as described, Hadden et al, Nature 257, 483-485 (1975). Lymphokine (MAF)-induced macrophage activation to kill Listeria monocytogenes following 5 days of culture in the presence or absence of MAF was performed during a 6 hour period as described in Hadden and England, Immunopharmacology, pages 87-100 (Plenum Press, 1977). Phagocytosis was quantitated during a 20-minute exposure to Listeria monocytogenes by counting the number of macrophages containing bacteria and the number of bacteria per phagocytic cell on gram stained monolayers in Labtek chambers. Intracellular killing of bacteria was evaluated by counting the number of cells containing bacteria and the number of bacteria/cell 6 hours after the initial 20 minute exposure. Parallel experiments in which macrophages were lysed and intracellular bacteria were cultured confirm the validity of bacterial activity determined by this manner in this system. The drugs were employed in each of the three systems over serial log concentration range in triplicate in the presence and absence of mitogen or lymphokine. Each type of experiment was performed at least three times. Previous experiments indicate a parallelism of response to pharmacologic modulation in the proliferation and achivation assays.
as §1

influenza virus [4] = test: Anti-influenza activity (overall); type: cell-based, several strains of A and B sub-types
[5] = 1.0-10 (unit not printed), listed as 15417

CCCCCCC(CO)n1cnc2c(=O)[nH]cnc21 (stereo not drawn) [NPT 15417]
inhibition at 10 µg/mL (influenza virus [1]): 18%
inhibition at 100 µg/mL (influenza virus [1]): 60%
% Inhibition [2]: 50-70% and > 70%
% Stimulation, Mitogen Induced Murine Lymphocyte Proliferation (mouse lymphocytes; 01-1.0 μg/ml, listed as 15417): 0%
% Stimulation, Mitogen Induced Murine Lymphocyte Proliferation (mouse lymphocytes; 1.0-10 μg/ml, listed as 15417): 0%
Maximum Percent Change, Mitogen Induced (Con A) Mouse Lymph. Prolif. (mouse lymphocytes; [5]): 0%
% Stimulation, Mitogen Induced Murine Lymphocyte Proliferation (mouse lymphocytes; 10-100 μg/ml, listed as 15417): 0%
Maximum Percent Change, Mitogen Induced (Con A) Mouse Lymph. Prolif. (mouse lymphocytes; 10-100 (unit not printed), listed as 15417): 0%
Maximum Percent Change, Mitogen Induced (Con A) Mouse Lymph. Prolif. (mouse lymphocytes; .01-1.0 (unit not printed), listed as 15417): 0%
% Stimulation, Mitogen Induced Murine Lymphocyte Proliferation (mouse lymphocytes; >100 μg/ml): 0%
Maximum Percent Change, Mitogen Induced (PHA) Human Lymph. Prolif. ([3]; 1.0-10 (unit not given)): 0%
Maximum Percent Change, Mitogen Induced (PHA) Human Lymph. Prolif. ([3]; 10-100 (unit not given)): -50%
Maximum Percent Change, Mitogen Induced (PHA) Human Lymph. Prolif. ([3]; .01-1.0 (unit not given)): 0%
Maximum Percent Change, Lymphokine Induced (MMF) Guinea Pig Mac. Prolif. (guinea pig macrophages; [5]): 13%
Maximum Percent Change, Lymphokine Induced (MMF) Guinea Pig Mac. Prolif. (guinea pig macrophages; 10-100 (unit not given)): -50%
anti-influenza activity (in words) (influenza virus [4]; compound by itself): significant anti-influenza activity
inhibit the replication of different strains of influenza virus (number of strains) (influenza virus [4]; concentrations ranging from 1-150 μg/ml): at least 4 different strains

CC(CO)n1cnc2c(Cl)ncnc21 (stereo not drawn) [NPT 15423, 9-(1-HYDROXY-2-PROPANE)-6-CHLOROPURINE]
inhibition at 10 µg/mL (influenza virus [1]): 2%
inhibition at 100 µg/mL (influenza virus [1]): 6%

O=c1[nH]cnc2c1ncn2CCO [NPT 15425, 9-HYDROXYETHYL HYPOXANTHINE]
Maximum Percent Change, Mitogen Induced (Con A) Mouse Lymph. Prolif. (mouse lymphocytes; 1.0-10 (unit not given)): 0%
Maximum Percent Change, Mitogen Induced (Con A) Mouse Lymph. Prolif. (mouse lymphocytes; .01-1.0 (unit not given)): 11%
Maximum Percent Change, Mitogen Induced (PHA) Human Lymph. Prolif. ([3]; 1.0-10 (unit not given)): 0%
Maximum Percent Change, Mitogen Induced (PHA) Human Lymph. Prolif. ([3]; 10-100 (unit not given)): 0%
Maximum Percent Change, Mitogen Induced (PHA) Human Lymph. Prolif. ([3]; .01-1.0 (unit not given)): 100%

CC(O)Cn1cnc2c(N)ncnc21 (stereo not drawn) [NPT 15431, 9-(2-HYDROXY-1-PROPYL)ADENINE]
% Inhibition of Hemadsorption Foci (influenza virus [1]; listed as 15431): 0%
Maximum Percent Change, Mitogen Induced (Con A) Mouse Lymph. Prolif. (mouse lymphocytes; 1.0-10 (unit not given)): -27%
Maximum Percent Change, Mitogen Induced (Con A) Mouse Lymph. Prolif. (mouse lymphocytes; 10-100 (unit not given)): -47%
Maximum Percent Change, Mitogen Induced (Con A) Mouse Lymph. Prolif. (mouse lymphocytes; .01-1.0 (unit not given)): -15%
Maximum Percent Change, Mitogen Induced (PHA) Human Lymph. Prolif. ([3]; 1.0-10 (unit not given)): 0%
Maximum Percent Change, Mitogen Induced (PHA) Human Lymph. Prolif. ([3]; 10-100 (unit not given)): 0%
Maximum Percent Change, Mitogen Induced (PHA) Human Lymph. Prolif. ([3]; .01-1.0 (unit not given)): 0%

CC(O)Cn1cnc2c(N)ncnc21 (stereo not drawn) [NPT 15432]
% Inhibition of Hemadsorption Foci (influenza virus [1]; listed as 15432): 62%
potentiation of anti-influenza activity by DIP.PAcBA salt (influenza virus [4]): Yes

CC(CO)n1cnc2c(N)ncnc21 (stereo not drawn) [NPT 15433, 9-(1-HYDROXY-2-PROPYL)ADENINE]
% Inhibition of Hemadsorption Foci (influenza virus [1]; listed as 15433): 0%
Maximum Percent Change, Mitogen Induced (Con A) Mouse Lymph. Prolif. (mouse lymphocytes; 1.0-10 (unit not given)): -23%
Maximum Percent Change, Mitogen Induced (Con A) Mouse Lymph. Prolif. (mouse lymphocytes; 10-100 (unit not given)): -65%
Maximum Percent Change, Mitogen Induced (Con A) Mouse Lymph. Prolif. (mouse lymphocytes; .01-1.0 (unit not given)): +15%
Maximum Percent Change, Mitogen Induced (PHA) Human Lymph. Prolif. ([3]; 1.0-10 (unit not given)): 0%
Maximum Percent Change, Mitogen Induced (PHA) Human Lymph. Prolif. ([3]; 10-100 (unit not given)): -50%
Maximum Percent Change, Mitogen Induced (PHA) Human Lymph. Prolif. ([3]; .01-1.0 (unit not given)): 53%

CC(CO)n1cnc2c(N)ncnc21 (stereo not drawn) [NPT 15434]
% Inhibition of Hemadsorption Foci (influenza virus [1]; listed as 15434): 62%
potentiation of anti-influenza activity by DIP.PAcBA salt (influenza virus [4]): Yes
